# Reference: paper PMC8400120, “Synthesis of Novel Methyl 7-[(Hetero)arylamino]thieno[2,3-b]pyrazine-6-carboxylates and Antitumor Activity Evaluation: Effects in Human Tumor Cells Growth, Cell Cycle Analysis, Apoptosis and Toxicity in Non-Tumor Cells” (Molecules, 2021)
# Entries after “also recorded” stand apart in the source; their conditions may differ.
# Tests used:
# [1] = tested on: non-small-cell lung carcinoma (NCI-H460); test: SRB cell growth inhibition assay, NCI-H460; format: cell-based, human; conditions: 48 h incubation, mean ± SD
# Description: (§1) The antitumor potential of the di(hetero)arylamines 2a–2o was evaluated using the sulforhodamine B (SRB) assay to establish some structure–activity relationships. Four human tumor cell lines (acquired from Leibniz-Institut DSMZ) were used: gastric adenocarcinoma (AGS), colorectal adenocarcinoma (CaCo-2), breast adenocarcinoma (MCF7), and non-small-cell lung cancer (NCI-H460), as well as a non-tumor cell line from African green monkey kidney (Vero) to evaluate the toxicity of the compounds. Ellipticine was used as a positive control, and the results are presented in GI50 values (µM) (Table 2).
# (§2) Each cell line was prepared in 96-well plates, at the required density (1.0 × 10^4 cells/well) and incubated for 24 h to achieve cell attachment. The solutions of the compounds were applied and incubated for another 48 h. GI50 values (µM) corresponding to the compound concentration that inhibited 50% of cell growth were determined using the sulforhodamine B assay. Two separate tests were carried out for each compound, in duplicate, with the effects expressed as mean values and standard deviation (SD). Ellipticine was used as a positive control.
# [2] = tested on: gastric adenocarcinoma (AGS); test: SRB cell growth inhibition assay, AGS; format: cell-based, human; conditions: for GI50: AGS, SRB assay, 48 h incubation, mean ± SD; for Selectivity for AGS among the cell lines used: comparison of GI50 values
# Description: as §1, §2
# [3] = tested on: colorectal adenocarcinoma (CaCo-2); test: SRB cell growth inhibition assay, CaCo-2; format: cell-based, human; conditions: for GI50: CaCo-2, SRB assay, 48 h incubation, mean ± SD
# Description: as §1, §2
# [4] = tested on: breast carcinoma (MCF7); test: SRB cell growth inhibition assay, MCF7; format: cell-based, human; conditions: MCF-7, SRB assay, 48 h incubation, mean ± SD
# Description: as §1, §2
# [5] = SRB cell growth inhibition assay, non-tumor Vero cells (toxicity); format: cell-based; conditions: African green monkey, Vero cells (non-tumor kidney cell line), 48 h incubation, mean ± SD
# Description: as §1, §2
# [6] = tested on: AGS cells; test: Flow cytometric cell cycle analysis (PI staining); format: cell-based, human; conditions: at GI50 concentration, 72 h, vs blank
# Description: This assay is based on the measurement of the DNA content in the PI-labeled nuclei. […] Cell cycle analysis was performed using propidium iodide (PI) staining and flow cytometry. This assay is established on the measurement of the DNA content of nuclei labeled with PI. Following this, the cells were staining according to the protocol PI/RNASE Solution (Immunostep, Spain, Salamanca). The harvested cells corresponding to 2 × 10^5 to 1 × 10^6 cells, were centrifuged for 5 min at 300g, and the supernatant was removed. The cells were fixed and added to 200 µL of 70% ethanol and left in the ethanol at 4 °C for 30 min. Following this, the cells were washed once in 2 mL phosphate-buffered saline (PBS) and centrifuged for 5 min at 300g and resuspended in 500 μL of PI solution (PI/RNASE) and incubated in the dark, at room temperature, for 15 min. Cell cycle phase distribution was evaluated using an Accuri C6 flow cytometer (BD Biosciences, San Jose, CA, USA). The DNA content of at least 20,000 cells was counted per sample, and the percentage of cells in different phases (G0/G1, S, and G2/M phases) of the cell cycle was evaluated using BD Accuri C6 software (BD Biosciences, San Jose, CA, USA). Ellipticine was used as a positive control at its GI50 concentration for AGS cell line.
# [7] = tested on: AGS cells; test: Flow cytometric apoptosis detection (FITC Annexin V/PI); format: cell-based, human; conditions: at GI50 concentration, 72 h; for Cell death in apoptosis assay: vs blank
# Description: Apoptosis induction was performed using the Fluorescein Isothiocyanate (FITC) Annexin V Apoptosis Kit (BD Biosciences, San Jose, CA, USA), and measured by flow cytometry for compounds 2b, 2f, and 2g (Figure 3). FITC Annexin V staining was used to determine the percentage of cells within a population that are actively undergoing apoptosis. […] Apoptosis detection was performed using the Fluorescein Isothiocyanate (FITC) Annexin V Apoptosis Kit (BD Biosciences, San Jose, CA, USA) and flow cytometry. FITC Annexin V staining is used to determine the percentage of cells within a population that are actively undergoing apoptosis. The cells were washed twice with PBS and resuspended cells in 1× Binding Buffer (10 mM HEPES/NaOH, pH 7.4, 140 mM NaCl, 2.5 mM CaCl2) at a concentration of 1 × 10^6 cells/mL. Following this, 100 μL of the solution (1 × 10^5 cells) was transferred to a 5 mL culture tube and 5 μL of FITC Annexin V (BD Biosciences, San Jose, CA, USA) and 5 μL of PI (BD Biosciences, San Jose, CA, USA) were added to each tube, and they were incubated in the dark, at room temperature, for 15 min. Finally, 400 μL of 1× Binding Buffer was added to each tube. Next, 30,000 cells were acquired using an Accuri C6 flow cytometer (BD Biosciences, San Jose, CA, USA), and the percentage of cell distribution was evaluated with Accuri C6 software (BD Biosciences, San Jose, CA, USA). Ellipticine was used as a positive control at its GI50 concentration for AGS cell line.
"GI50 ([1]; Homo sapiens, NCI-H460, 48 h) [µM]","GI50 ([2]; Homo sapiens, 48 h) [µM]","GI50 ([3]; Homo sapiens, Caco-2, 48 h) [µM]","GI50 ([4]; Homo sapiens, MCF7, 48 h) [µM]",melting point [°C],Structure (SMILES),GI50 at 48 h [5] [µM],further results
69 ± 7,86 ± 6,142 ± 11,96 ± 6,–,"COC(=O)c1sc2nccnc2c1Nc1cccc(F)c1 [2j, Methyl 7-[(3-Fluorophenyl)amino]thieno[2,3-b]pyrazine-6-carboxylate]",149 ± 4,–
120 ± 10,7.8 ± 0.2,38 ± 4,182 ± 5,–,"COC(=O)c1sc2nccnc2c1Nc1cc(OC)cc(OC)c1 [2g, Methyl 7-[(3,5-Dimethoxyphenyl)amino]thieno[2,3-b]pyrazine-6-carboxylate]",144 ± 10,"Selectivity for AGS among the cell lines used [2]: selective for this cell line; AGS cell cycle profile histogram [6]: high percentage of cell death and an atypical distribution on cell cycle profile; High number of cells in apoptosis (expected from GI50 values) [7]: not verified; Apoptotic cells ([7]; Figure 4): 19,6%; Dead cells ([7]; Figure 4): 60,4%; Live Cells ([7]; Figure 4): 19,0%; Cell death in apoptosis assay [7]: large amount of cell death"
105 ± 8,39 ± 3,10.9 ± 0.4,103 ± 2,214 to 216,"COC(=O)c1sc2nccnc2c1Nc1ccc(C#N)cc1 [2n, Methyl 7-[(4-Cyanophenyl)amino]thieno[2,3-b]pyrazine-6-carboxylate]",48 ± 4,Selectivity for CaCo-2 among the cell lines used ([3]; comparison of GI50 values): selective for this cell line; also recorded: selective against CaCo-2 cell line
43 ± 2,55 ± 0.3,31.2 ± 0.2,103 ± 3,225 to 227,"COC(=O)c1sc2nccnc2c1Nc1ccccc1[N+](=O)[O-] [2o, Methyl 7-[(2-Nitrophenyl)amino]thieno[2,3-b]pyrazine-6-carboxylate]",92 ± 8,–
200 ± 3,34 ± 2,56 ± 2,140 ± 7,159 to 161,"COC(=O)c1sc2nccnc2c1Nc1ccc(OC)cc1OC [2e, Methyl 7-[(2,4-Dimethoxyphenyl)amino]thieno[2,3-b]pyrazine-6-carboxylate]",138 ± 8,–
122 ± 9,95 ± 9,38 ± 2,97 ± 2,154 to 156,"COC(=O)c1sc2nccnc2c1Nc1ccccc1 [2a, Methyl 7-(Phenylamino)thieno[2,3-b]pyrazine-6-carboxylate]",120 ± 6,–
77 ± 6,33 ± 3,9.2 ± 0.3,105.7 ± 0.5,–,"COC(=O)c1sc2nccnc2c1Nc1cc(OC)c(OC)c(OC)c1 [2h, Methyl 7-[(3,4,5-Trimethoxyphenyl)amino]thieno[2,3-b]pyrazine-6-carboxylate]",53 ± 5,–
84 ± 2,118 ± 2,62 ± 4,160 ± 7,171 to 173,"COC(=O)c1sc2nccnc2c1Nc1ccc(F)cc1 [2k, Methyl 7-[(4-Fluorophenyl)amino]thieno[2,3-b]pyrazine-6-carboxylate]",149 ± 7,–
41 ± 3,< 10,< 10,87 ± 1,–,"COC(=O)c1sc2nccnc2c1Nc1ccc(OC)c(OC)c1 [2f, Methyl 7-[(3,4-Dimethoxyphenyl)amino]thieno[2,3-b]pyrazine-6-carboxylate]",53 ± 3,"GI50 [2]: 9.2 ± 0.2 µM; GI50 [3]: 8 ± 1 µM; Effect on G0/G1 phases of AGS cell cycle [6]: cell cycle arrest in G0/G1 phases, although this result was not statistically significant; Effect on G2/M phase of AGS cell cycle [6]: did not present any difference in the percentage of cells compared to the blank; High number of cells in apoptosis (expected from GI50 values) [7]: not verified; Cell death in apoptosis assay [7]: moderated cell death compared to the blank"
49 ± 2,88.6 ± 0.1,43.3 ± 0.3,128 ± 2,166 to 168,"COC(=O)c1sc2nccnc2c1-n1cccc1 [2m, Methyl 7-(1H-pyrrol-1-yl)thieno[2,3-b]pyrazine-6-carboxylate]",140 ± 12,–
96 ± 1,98 ± 3,56 ± 1,160 ± 6,171 to 173,"COC(=O)c1sc2nccnc2c1Nc1cccc(OC)c1 [2c, Methyl 7-[(3-Methoxyphenyl)amino]thieno[2,3-b]pyrazine-6-carboxylate]",94 ± 3,–
52.8 ± 0.3,59 ± 3,60 ± 2,136 ± 3,–,"COC(=O)c1sc2nccnc2c1Nc1ccc(OC)cc1 [2d, Methyl 7-[(4-Methoxyphenyl)amino]thieno[2,3-b]pyrazine-6-carboxylate]",127 ± 3,–
122 ± 11,63.3 ± 0.1,45 ± 3,116 ± 5,150 to 152,"COC(=O)c1sc2nccnc2c1Nc1cccnc1 [2l, Methyl 7-[(Pyridin-3-yl)amino]thieno[2,3-b]pyrazine-6-carboxylate]",110 ± 5,–
45 ± 1,9.8 ± 0.2,36 ± 2,127 ± 9,–,"COC(=O)c1sc2nccnc2c1Nc1ccccc1OC [2b, Methyl 7-[(2-Methoxyphenyl)amino]thieno[2,3-b]pyrazine-6-carboxylate]",21.29 ± 0.03,"Selectivity for AGS among the cell lines used [2]: selective for this cell line; Effect on G0/G1 phases of AGS cell cycle [6]: cell cycle arrest in G0/G1 phases, although this result was not statistically significant; Effect on G2/M phase of AGS cell cycle [6]: did not present any difference in the percentage of cells compared to the blank; High number of cells in apoptosis (expected from GI50 values) [7]: not verified; Cell death in apoptosis assay [7]: moderated cell death compared to the blank"
76 ± 1,48 ± 4,88.4 ± 0.2,128 ± 5,–,"COC(=O)c1sc2nccnc2c1Nc1ccccc1F [2i, Methyl 7-[(2-Fluorophenyl)amino]thieno[2,3-b]pyrazine-6-carboxylate]",117 ± 10,–

Structure (SMILES),"GI50 ([1]; Homo sapiens, NCI-H460, 48 h) [µM]","GI50 ([2]; Homo sapiens, 48 h) [µM]","GI50 ([3]; Homo sapiens, Caco-2, 48 h) [µM]","GI50 ([4]; Homo sapiens, MCF7, 48 h) [µM]",melting point [°C],GI50 at 48 h [5] [µM],further results
"Cc1c2ccncc2c(C)c2c1[nH]c1ccccc12 [Ellipticine, reference compound]",≤ 1,≤ 1,≤ 1,≤ 1,–,0.6 ± 0.1,GI50 [1]: 1.01 ± 0.01 µM; GI50 [2]: 0.9 ± 0.1 µM; GI50 [3]: 0.8 ± 0.1 µM; GI50 [4]: 1.02 ± 0.004 µM
